Measured values reported in patent publication US8772253B2, “Aureolic acid derivatives, the method for preparation thereof and the uses” (Entrechem, S.L., priority 2009, dated 2014).
Like-named read-outs stand apart in the source and are kept apart here.

How the values were obtained:
Type in all cases: cell-based
[1] = system: H116 (colon adenocarcinoma); assay: MTT cell proliferation (cytotoxicity) assay, H116; details: read-out: IC50 or concentration required to achieve 50% growth inhibition compared to untreated cells, H116 (colon)
Procedure: (§1) MTM and CRM derivatives were assayed against a collection of tumor cell lines. Tumor cell lines were obtained from The American Type and Culture Collection (ATCC), and the lines were the following; A549 (human lung carcinoma); H116 (colon adenocarcinoma); PSN1 (pancreatic adenocarcinoma) and T98G (human glyoblastoma). Cells were cultured in medium RPM1 containing 2 mM glutamine, 50 IU/ml penicillin and 50 μg/ml streptomycin. Culture medium for cell lines A549 and H116 was supplemeted with 5% FBS and culture medium for cell lines PSN1 and T98G was supplemented with 10% FBS.
(§2) The evaluation of compound cytotoxicity was carried out by determining cell viability using an assay based on metabolic reduction of 3-(4,5-dimethyl-2-thiazolyl)-2,5-diphenyltetrazolium bromide (MTT; Sigma Chemical Co. St. Louis, Mo.). This reduction reaction is carried out by mitochondrion succinate dehydrogenase of viable cells and produce formazan, a chromogenic compound that can be quantified by spectrophotometry.
(§3) The assay was carried out following the procedure described by Mosmann (J. Immunol. Methods 1983, 65, 55). Tumor cells were incubated in 96 well microtitre plates containing 200 μl of complete medium (with 4×10^3 cells/well for A549 and 6×10^3 cells/well for H116, PSN1 and T98G). Serial dilutions in DMSO of the test compounds (10 μg/ml, 5 μg/ml, 1 μg/ml, 0.5 μg/ml, 0.1 μg/ml, 0.05 μg/ml, 0.01 μg/ml, y 0.005 μg/ml) were added and after 2 days incubation (at 37° C., 5% CO2 and high relative humidity), 50 μl of MTT (1 mg/ml in PBS) was added to each well. The plates were incubated at 37° C. for 2 hours and the reduction product (formazan) was resuspended in 100 μl of DMSO and quantified at 490 nm with a spectrophotometer.

[2] = system: PSN1 (pancreatic adenocarcinoma); assay: MTT cell proliferation (cytotoxicity) assay, PSN1; details: read-out: IC50 or concentration required to achieve 50% growth inhibition compared to untreated cells, PSN1 (pancreatic adenocarcinoma)
Procedure: as §1, §2, §3

[3] = system: A549 (human lung carcinoma); assay: MTT cell proliferation (cytotoxicity) assay, A549; details: read-out: IC50 or concentration required to achieve 50% growth inhibition compared to untreated cells, A549 (lung)
Procedure: as §1, §2, §3

[4] = system: T98G (human glyoblastoma); assay: MTT cell proliferation (cytotoxicity) assay, T98G; details: read-out: IC50 or concentration required to achieve 50% growth inhibition compared to untreated cells, T98G (glyoblastoma)
Procedure: as §1, §2, §3

[5] = H116 cells, MTT, 2 days incubation, triplicate
[6] = PSN1 cells, MTT, 2 days incubation, triplicate, read-out: IC50 or concentration required to achieve 50% growth inhibition compared to untreated cells, PSN1 (prostate)
[7] = A549 cells, MTT, 2 days incubation, triplicate
[8] = T98G cells, MTT, 2 days incubation, triplicate
[9] = 48 h, H116 cells, MTT, 2 days incubation, triplicate
[10] = Homo sapiens, 48 h, PSN1 cells, MTT, 2 days incubation, triplicate, read-out: IC50 or concentration required to achieve 50% growth inhibition compared to untreated cells, PSN1 (prostate)
[11] = Homo sapiens, 48 h, A549 cells, MTT, 2 days incubation, triplicate
[12] = Homo sapiens, 48 h, T98G cells, MTT, 2 days incubation, triplicate

Row | Compound | IC50 [1, 9] | IC50 [2, 10] | IC50 [3, 11] | IC50 [4, 12] | other results
1 | 3D-demycarosyl-3D-β-D-digitoxosyl-MTM [reference compound] | – | – | – | – | IC50 [1, 5]: 46.6 nM; IC50 [2, 6]: 46.6 nM; IC50 [3, 7]: 46.6 nM; IC50 [4, 8]: 69 nM
2 | 3D-demycarosyl-MTM-SK [reference compound] | – | – | – | – | IC50 [1, 5]: 500 nM; IC50 [2, 6]: 1000 nM; IC50 [3, 7]: 1000 nM; IC50 [4, 8]: > 1000 nM
3 | CO[C@H](C(=O)C(C)=O)[C@@H]1Cc2cc3cc(O[C@H]4C[C@@H](O[C@H]5C[C@@H](O)[C@H](O)C(C)O5)[C@H](O)C(C)O4)c(C)c(O)c3c(O)c2C(=O)[C@H]1O[C@H]1C[C@@H](O[C@H]2C[C@@H](O[C@H]3C[C@@H](O)[C@H](O)C(C)O3)[C@@H](O)C(C)O2)[C@H](O)C(C)O1 (some centres unmarked) [(IX)] | – | – | – | – | IC50 ([1]; H116, 48 h): 5 nM; IC50 ([2]; Homo sapiens, PSN1, 48 h): 5 nM; IC50 ([3]; Homo sapiens, A549, 48 h): 5 nM; IC50 ([4]; Homo sapiens, T98G, 48 h): 10 nM
4 | C/C=C/C(=O)O[C@@H]1C[C@H](O[C@@H]2C[C@H](Oc3cc4cc5c(c(O)c4c(O)c3C)C(=O)[C@@H](O[C@H]3C[C@@H](O[C@H]4C[C@@H](O[C@H]6C[C@](C)(O)[C@H](O)C(C)O6)[C@@H](O)C(C)O4)[C@H](O)C(C)O3)[C@H]([C@H](OC)C(=O)[C@@H](O)[C@@H](C)O)C5)OC(C)[C@H]2O)OC(C)[C@H]1O (some centres unmarked) [(LI)] | 43 nM | 43 nM | 43 nM | 87 nM | –
5 | CO[C@H](C(=O)[C@@H](O)[C@@H](C)OC(=O)CCC(=O)O)[C@@H]1Cc2cc3cc(O[C@H]4C[C@@H](O[C@H]5C[C@@H](O)[C@H](O)C(C)O5)[C@H](O)C(C)O4)c(C)c(O)c3c(O)c2C(=O)[C@H]1O[C@H]1C[C@@H](O[C@H]2C[C@@H](O[C@H]3C[C@](C)(O)[C@H](O)C(C)O3)[C@@H](O)C(C)O2)[C@H](O)C(C)O1 (some centres unmarked) [(LII)] | 420 nM | 420 nM | 420 nM | 844 nM | –
6 | CO[C@H](C(=O)[C@@H](O)[C@@H](C)O)[C@@H]1Cc2cc3cc(O[C@H]4C[C@@H](O[C@H]5C[C@@H](O)[C@H](OC(=O)CCC(=O)O)C(C)O5)[C@H](O)C(C)O4)c(C)c(O)c3c(O)c2C(=O)[C@H]1O[C@H]1C[C@@H](O[C@H]2C[C@@H](O[C@H]3C[C@](C)(O)[C@H](O)C(C)O3)[C@@H](O)C(C)O2)[C@H](O)C(C)O1 (some centres unmarked) [(LIII)] | 844 nM | 633 nM | 4210 nM | 844 nM | –
7 | CO[C@H](C(=O)[C@@H](O)[C@@H](C)O)[C@@H]1Cc2cc3cc(O[C@H]4C[C@@H](O[C@H]5C[C@@H](OC(=O)CCC(=O)O)[C@H](O)C(C)O5)[C@H](O)C(C)O4)c(C)c(O)c3c(O)c2C(=O)[C@H]1O[C@H]1C[C@@H](O[C@H]2C[C@@H](O[C@H]3C[C@](C)(O)[C@H](O)C(C)O3)[C@@H](O)C(C)O2)[C@H](O)C(C)O1 (some centres unmarked) [(LV)] | 4210 nM | 422 nM | 4210 nM | 4210 nM | –
8 | CO[C@@H]([C@@H]1Cc2cc3cc(O[C@H]4C[C@@H](O[C@H]5C[C@@H](OC(C)=O)[C@H](O)C(C)O5)[C@H](O)C(C)O4)c(C)c(O)c3c(O)c2C(=O)[C@H]1O[C@H]1C[C@@H](O[C@H]2C[C@@H](O[C@H]3C[C@](C)(O)[C@H](O)C(C)O3)[C@@H](O)C(C)O2)[C@H](O)C(C)O1)[C@@H](O)C(C)=O (some centres unmarked) [(LXI)] | 9 nM | 6.5 nM | 45 nM | 45 nM | –
9 | CO[C@@H]([C@@H]1Cc2cc3cc(O[C@H]4C[C@@H](O[C@H]5C[C@@H](O)[C@H](OC(C)=O)C(C)O5)[C@H](O)C(C)O4)c(C)c(O)c3c(O)c2C(=O)[C@H]1O[C@H]1C[C@@H](O[C@H]2C[C@@H](O[C@H]3C[C@](C)(O)[C@H](O)C(C)O3)[C@@H](O)C(C)O2)[C@H](O)C(C)O1)[C@@H](O)C(C)=O (some centres unmarked) [(LXIX)] | 9 nM | 45 nM | 9 nM | 4 nM | –
10 | CO[C@@H]([C@@H]1Cc2cc3cc(O[C@H]4C[C@@H](O[C@H]5C[C@@H](O)[C@H](O)C(C)O5)[C@H](O)C(C)O4)c(C)c(O)c3c(O)c2C(=O)[C@H]1O[C@H]1C[C@@H](O[C@H]2C[C@@H](O[C@H]3C[C@@H](O)[C@H](O)C(C)O3)[C@@H](O)C(C)O2)[C@H](O)C(C)O1)[C@@H](O)C(C)=O (some centres unmarked) [(VII)] | 10 nM | 100 nM | 50 nM | 300 nM | –
11 | CO[C@H](C(=O)C(C)=O)[C@@H]1Cc2cc3cc(O[C@H]4C[C@@H](O[C@H]5C[C@@H](O)[C@H](O)C(C)O5)[C@H](O)C(C)O4)c(C)c(O)c3c(O)c2C(=O)[C@H]1O[C@H]1C[C@@H](O[C@H]2C[C@@H](O)[C@@H](O)C(C)O2)[C@H](O)C(C)O1 (some centres unmarked) [(VIII)] | 50 nM | 100 nM | 50 nM | 300 nM | –
12 | CO[C@H](C(=O)[C@@H](O)[C@@H](C)O)[C@@H]1Cc2cc3cc(O[C@H]4C[C@@H](O[C@H]5C[C@@H](O)[C@H](O)C(C)O5)[C@H](O)C(C)O4)c(C)c(O)c3c(O)c2C(=O)[C@H]1O[C@H]1C[C@@H](O[C@H]2C[C@@H](O[C@H]3C[C@](C)(O)[C@H](OC(C)=O)C(C)O3)[C@@H](O)C(C)O2)[C@H](O)C(C)O1 (some centres unmarked) [(XII)] | 10 nM | 50 nM | 50 nM | 300 nM | –
13 | CO[C@@H]([C@@H]1Cc2cc3cc(O[C@H]4C[C@@H](O[C@H]5C[C@@H](O)[C@H](O)C(C)O5)[C@H](O)C(C)O4)c(C)c(O)c3c(O)c2C(=O)[C@H]1O[C@H]1C[C@@H](O[C@H]2C[C@@H](O[C@H]3C[C@](C)(O)[C@H](O)C(C)O3)[C@@H](O)C(C)O2)[C@H](O)C(C)O1)[C@@H](O)C(C)=O (some centres unmarked) [(XIV)] | 10 nM | 50 nM | 50 nM | 750 nM | –
14 | CCCC(=O)O[C@@H]1C[C@H](O[C@@H]2C[C@H](Oc3cc4cc5c(c(O)c4c(O)c3C)C(=O)[C@@H](O[C@H]3C[C@@H](O[C@H]4C[C@@H](O[C@H]6C[C@](C)(O)[C@H](O)C(C)O6)[C@@H](O)C(C)O4)[C@H](O)C(C)O3)[C@H]([C@H](OC)C(=O)[C@@H](O)[C@@H](C)O)C5)OC(C)[C@H]2O)OC(C)[C@H]1O (some centres unmarked) [(XLVI)] | 43 nM | 43 nM | 433 nM | 43 nM | –
15 | CCCC(=O)O[C@H](C)[C@H](O)C(=O)[C@@H](OC)[C@@H]1Cc2cc3cc(O[C@H]4C[C@@H](O[C@H]5C[C@@H](O)[C@H](O)C(C)O5)[C@H](O)C(C)O4)c(C)c(O)c3c(O)c2C(=O)[C@H]1O[C@H]1C[C@@H](O[C@H]2C[C@@H](O[C@H]3C[C@](C)(O)[C@H](O)C(C)O3)[C@@H](O)C(C)O2)[C@H](O)C(C)O1 (some centres unmarked) [(XXXI)] | 43 nM | 43 nM | 43 nM | 43 nM | –
16 | CO[C@H](C(=O)C(C)=O)[C@@H]1Cc2cc3cc(O[C@H]4C[C@@H](O[C@H]5C[C@@H](O)[C@H](O)[C@@H](C)O5)[C@H](O)[C@@H](C)O4)c(C)c(O)c3c(O)c2C(=O)[C@H]1O[C@H]1C[C@@H](O[C@H]2C[C@@H](O[C@H]3C[C@](C)(O)[C@H](O)[C@@H](C)O3)[C@@H](O)[C@@H](C)O2)[C@H](O)[C@@H](C)O1 [MTM-SDK, reference compound] | – | – | – | – | IC50 [1, 5]: 9.4 nM; IC50 [2, 6]: 9.4 nM; IC50 [3, 7]: 9.4 nM; IC50 [4, 8]: 47.4 nM
17 | CO[C@@H]([C@@H]1Cc2cc3cc(O[C@H]4C[C@@H](O[C@H]5C[C@@H](O)[C@H](O)[C@@H](C)O5)[C@H](O)[C@@H](C)O4)c(C)c(O)c3c(O)c2C(=O)[C@H]1O[C@H]1C[C@@H](O[C@H]2C[C@@H](O[C@H]3C[C@](C)(O)[C@H](O)[C@@H](C)O3)[C@@H](O)[C@@H](C)O2)[C@H](O)[C@@H](C)O1)[C@@H](O)C(C)=O [MTM-SK, reference compound] | – | – | – | – | IC50 [1, 5]: 9.4 nM; IC50 [2, 6]: 9.4 nM; IC50 [3, 7]: 9.4 nM; IC50 [4, 8]: 47.3 nM
